Target: T1, FicD^E234G (Homo sapiens, UniProt Q9BVA6, E234G)
T1 construct: soluble ER luminal domain (residues 105 to 458) of wild-type human FicD and three mutants; 6xHis-Sumo (N, cleaved yes); made in house; host or cells: Rosetta(DE3) E. coli
T1 sequence (Q9BVA6 105-458 E234G): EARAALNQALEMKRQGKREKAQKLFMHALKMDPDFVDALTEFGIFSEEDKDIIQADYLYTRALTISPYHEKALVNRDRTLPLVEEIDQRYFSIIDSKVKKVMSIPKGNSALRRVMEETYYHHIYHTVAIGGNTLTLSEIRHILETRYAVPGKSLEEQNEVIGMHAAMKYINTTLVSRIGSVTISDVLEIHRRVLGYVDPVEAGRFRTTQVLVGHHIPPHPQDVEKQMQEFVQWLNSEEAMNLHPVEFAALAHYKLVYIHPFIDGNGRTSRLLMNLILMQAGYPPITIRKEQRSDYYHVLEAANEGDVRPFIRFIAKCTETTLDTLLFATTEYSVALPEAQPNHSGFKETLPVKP
Experiment: Total (intact) mass analysis of FicD^E234G incubated with FPP
Conditions: 50uM FPP, 5mM MgCl2
Description: To reveal the mechanism of FicD inhibition by FPP, we leveraged the FicD^E234G mutant for structural studies. We soaked FPP into crystals of the FicD^E234G variant and solved the ligand-bound structure (Fig. 5 A and B). […] The diphosphate group of FPP closely overlapped with the ADP diphosphate when superimposed with a FicD^E234G-ADP structure (Fig. 5 A, Left), and the hydrophobic isoprenyl groups of FPP overlap with the nucleoside in the active site binding pocket (Fig. 5 A, Right). The FPP diphosphate binds directly to the side chains of N369, R371, with the sidechain of D367 coordinating the Mg^2+ (Fig. 5B). These interactions mimic those observed between ADP/ATP and FicD ([26]). […] As previously noted, only GPP and FPP could bind to and inhibit FicD, but analogs of the isoprenoid-pyrophosphate metabolites (geraniol, GMP, farnesol, FMP, DMAPP, and MVAPP) could not (Fig. 2 B–D). Together, these observations indicate both the pyrophosphate head and the long isoprenoid tail of GPP/FPP contribute to the binding with FicD. […]
Intact mass analysis of proteins was performed by the UT Southwestern Proteomics Core. Intact protein samples were analyzed by LC/MS, using a Sciex X500B QTOF mass spectrometer operating in positive ion mode, coupled to an Agilent 1290 Infinity II HPLC. […]

## CC(C)=CCC/C(C)=C/CC/C(C)=C/COP(=O)(O)OP(=O)(O)O [FPP, farnesyl-pyrophosphate]
  mass shift associated with putative FPP automodification: no mass shift

Source: article PMC12974487, “Inhibition of FicD-mediated AMPylation and deAMPylation by isoprenoid diphosphates” (Proceedings of the National Academy of Sciences of the …, 2026)
